Activity calls are given as the source filed them. No cut-off for these calls is given here.
Experiments:
HeLa = test: Cytotoxicity against human HeLa cells; format: functional, cell-based
[1] = system: Human immunodeficiency virus 1; test: Antiviral activity against HIV1; format: functional, organism-based
[2] = molecular target: T1, Tyrosine-protein phosphatase non-receptor type 1 (Homo sapiens, UniProt P18031); test: Inhibition of human PTP1B
T1 sequence (P18031 whole entry): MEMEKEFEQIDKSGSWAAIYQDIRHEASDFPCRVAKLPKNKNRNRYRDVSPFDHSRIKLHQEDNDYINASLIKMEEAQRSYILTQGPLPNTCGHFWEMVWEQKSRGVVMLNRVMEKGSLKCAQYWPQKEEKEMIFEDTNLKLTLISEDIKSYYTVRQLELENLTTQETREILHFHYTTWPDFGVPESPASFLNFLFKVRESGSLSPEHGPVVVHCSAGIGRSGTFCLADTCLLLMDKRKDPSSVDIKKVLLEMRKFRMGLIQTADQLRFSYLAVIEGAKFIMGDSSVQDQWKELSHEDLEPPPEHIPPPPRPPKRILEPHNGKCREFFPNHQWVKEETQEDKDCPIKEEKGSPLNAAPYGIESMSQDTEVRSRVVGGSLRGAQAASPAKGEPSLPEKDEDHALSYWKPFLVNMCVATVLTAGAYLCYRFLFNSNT

CHO-K1 [3] = test: Activation of insulin signaling pathway in CHOK1 cells; format: functional, cell-based; conditions: Cricetulus griseus
3T3-L1 [4] = test: Increase in glucose uptake in mouse 3T3L1 cells relative to control; format: functional
CHO-K1 [5] = test: Induction of membrane translocation of GLUT4 transporter in CHOK1 cells; format: functional, cell-based; conditions: Cricetulus griseus
3T3-L1 [6] = test: Induction of membrane translocation of GLUT4 transporter in mouse 3T3L1 cells; format: functional, cell-based
3T3-L1 [7] = test: Activation of insulin signaling pathway in mouse 3T3L1 cells; format: functional, cell-based

IC50 [2] [µM] | Compound | IC50 (HeLa) [µM] | Activity [1] | Activity (CHO-K1 [3]) | Activity (3T3-L1 [4]) | Activity (CHO-K1 [5]) | Activity (3T3-L1 [6]) | Activity (3T3-L1 [7])
39.5 | COC1=CC(=O)C=C(C[C@@]2(C)CC[C@]3(C)C(C)=CCC[C@H]3[C@H]2C)C1=O | 19.4 | inactive | – | – | – | – | –
– | CC1=CCC[C@H]2[C@](C)(CC3=CC(=O)C=CC3=O)[C@@H](C)CC[C@]12C | – | inactive | – | – | – | – | –
– | CC1=CCC[C@H]2[C@](C)(Cc3cc(O)ccc3O)[C@@H](C)CC[C@]12C | – | inactive | – | – | – | – | –
– | COC1=CC(=O)C(O)=C(C[C@@]2(C)CC[C@]3(C)C(C)=CCC[C@H]3[C@H]2C)C1=O [BOLINAQUINONE] | 5.45 | inactive | – | – | – | – | –
6.7 | CC1=CCC[C@H]2[C@@H](C)[C@@](C)(CC3=C(O)C(=O)C=C(NCCS(=O)(=O)O)C3=O)CC[C@]12C [DYSIDINE] | – | inactive | Active | 2.3 | Active | Active | Active

Reference: ChEMBL document CHEMBL1149079, “A novel sesquiterpene quinone from Hainan sponge Dysidea villosa” (Bioorg Med Chem Lett, 2009)
